Test results published in patent publication US20090221624A1, “4-AMINOQUINOLINE COMPOUNDS FOR TREATING VIRUS-RELATED CONDITIONS” (priority 2005, published 2009).

Legend:
[1] = system: HCV replicon (Clone A cells, Huh7, subgenomic hepatits C virus RNA); assay: HCV Neo screening assay (HCV replicon, NPTII ELISA); type: cell-based, hepatitis C virus; settings: for EC50 / inhibition at 25 µM: Hepatitis C virus, Huh-7; for EC50: Secondary Data, HCV; for inhibition at 25 µM: primary screening, 25 μM final concentration, 24 hours, percent inhibition of viral replication, read-out: HCV Inh; for HCV TI: therapeutic index CC50/EC50, HCV
RSV minigenome = assay: RSV minigenome-dependent β-galactosidase expression assay (RSV β-Gal); type: cell-based, respiratory syncytial virus; settings: for EC50 / inhibition at 25 µM: human respiratory syncytial virus; for EC50: Secondary Data, RSV, read-out: RSV EC50; for inhibition at 25 µM: primary screening, 25 μM final concentration, 24 hours, percent inhibition of viral replication, read-out: RSV Inh; for RSV TI: therapeutic index CC50/EC50, RSV
WNV (WN-hRuPac cells) = assay: WNV antiviral activity, WN-hRuPac cells, Renilla luciferase; type: cell-based, West Nile virus; settings: for EC50 / inhibition at 25 µM: West Nile virus; for EC50: Secondary Data, WNV, read-out: WNV EC50; for inhibition at 25 µM: primary screening, 25 μM final concentration, 24 hours, percent inhibition of viral replication, read-out: WNV Inh; for WNV TI: therapeutic index CC50/EC50, WNV
YFV (YF-hRuPac cells) = assay: microbe, parasite or virus in culture; type: cell-based, yellow fever virus; settings: for inhibition at 25 µM / EC50: Yellow fever virus; for inhibition at 25 µM: 24 h, read-out: YFV Inh; for EC50: read-out: YFV EC50
DNG (D2-hRuPac cells) = assay: DNG antiviral activity, D2-hRuPac cells, Renilla luciferase; type: cell-based, Dengue fever virus; settings: Dengue virus, secondary screening
EBOV minigenome = assay: microbe, parasite or virus in culture; type: cell-based, Ebola virus; settings: Zaire ebolavirus; for inhibition at 25 µM: 24 h, read-out: EBOV Inh; for EC50: read-out: EBOV EC50
SINV (SR19-F-luc cells) = assay: SINV antiviral activity, SR19-F-luc cells, Firefly luciferase; type: cell-based; settings: Sindbis virus; for inhibition at 25 µM: primary screening, 25 μM final concentration, 24 hours, percent inhibition of viral replication, read-out: SINV Inh; for EC50: secondary screening, SR19-F-luc cells

| Structure (SMILES) | inhibition at 25 µM [1] | EC50 (RSV minigenome) | inhibition at 25 µM (RSV minigenome) | RSV TI (RSV minigenome) | inhibition at 25 µM (WNV (WN-hRuPac cells)) | YFV TI (YFV (YF-hRuPac cells)) | inhibition at 25 µM (YFV (YF-hRuPac cells)) | EC50 (YFV (YF-hRuPac cells)) | EC50 (DNG (D2-hRuPac cells)) | inhibition at 25 µM (EBOV minigenome) | EC50 (EBOV minigenome) | inhibition at 25 µM (SINV (SR19-F-luc cells)) | EC50 (SINV (SR19-F-luc cells)) | CC50 (in vitro; DNG CC50) | CC50 (in vitro; EBOV CC50) | CC50 (in vitro; HCV CC50) | CC50 (in vitro; RSV CC50) | CC50 (in vitro; SINV CC50) | CC50 (in vitro; WNV CC50) | CC50 (in vitro; YFV CC50) | further results |
| --- | --- | --- | --- | --- | --- | --- | --- | --- | --- | --- | --- | --- | --- | --- | --- | --- | --- | --- | --- | --- | --- |
| CCOC(=O)c1cnc2ccc(OCC)cc2c1NCc1ccco1 [Compound 36] | 135% | 1.46 µM | 100% | 32.4 | 93.7% | 6.98 | 94.4% | 6.78 µM | 16.5 µM | 15.5% | 75 µM | -58.8% | ≥ 75 µM | 47.3 µM | 47.3 µM | 21.3 µM | 47.3 µM | 47.3 µM | 47.3 µM | 47.3 µM | EC50 [1]: 6 µM; HCV TI [1]: 3.55; EC50 (WNV (WN-hRuPac cells)): 2.38 µM; WNV TI (WNV (WN-hRuPac cells)): 19.87 |
| CCOC(=O)c1cnc2c(ccc3ccccc32)c1NCc1ccco1 [Compound 37] | 72.9% | 1.38 µM | 58% | 30.12 | 87.8% | 15.12 | 94.4% | 2.75 µM | 25.5 µM | 15.7% | 75 µM | 10.3% | ≥ 75 µM | 41.6 µM | 41.6 µM | 56 µM | 41.6 µM | 41.6 µM | 41.6 µM | 41.6 µM | EC50 [1]: 13 µM; HCV TI [1]: 4.31; EC50 (WNV (WN-hRuPac cells)): 4.08 µM; WNV TI (WNV (WN-hRuPac cells)): 10.19 |
| CCOC(=O)c1cnc2ccc(C)cc2c1Nc1ccc(N2CCOCC2)cc1 [Compound 38] | 88.4% | 5.05 µM | 98.2% | 14.85 | 36.5% | 1.94 | 70.8% | 38.7 µM | ≥ 75 µM | -36.4% | 75 µM | 43.2% | ≥ 75 µM | ≥ 75 µM | ≥ 75 µM | 19 µM | ≥ 75 µM | ≥ 75 µM | ≥ 75 µM | ≥ 75 µM | EC50 [1]: 9.5 µM; HCV TI [1]: 2 |
| CCOC(=O)c1cnc2ccc(C)cc2c1NCc1ccco1 [Compound 39] | 22.4% | 1.47 µM | 91.6% | 18.33 | 102% | 8.95 | 96.6% | 3.01 µM | 7.1 µM | 64.1% | 7.22 µM | 71.9% | ≥ 75 µM | 26.9 µM | 26.9 µM | ≥ 75 µM | 26.9 µM | 26.9 µM | 26.9 µM | 26.9 µM | EC50 (WNV (WN-hRuPac cells)): 5.46 µM; WNV TI (WNV (WN-hRuPac cells)): 4.94 |
| Cc1cc(Nc2cccc(C(F)(F)F)c2)c2cc(Cl)ccc2n1 [Compound 40] | 96.1% | 2.43 µM | 99.3% | 24.68 | 65.6% | 9.3 | 79.6% | 6.45 µM | 40.6 µM | 26.3% | 75 µM | 69.5% | 14.4 µM | 60 µM | 60 µM | 5.53 µM | 60 µM | 60 µM | 60 µM | 60 µM | EC50 [1]: 5.55 µM; HCV TI [1]: 1; EC50 (WNV (WN-hRuPac cells)): 8.39 µM; WNV TI (WNV (WN-hRuPac cells)): 7.15 |
| CCOc1ccc2nc(C)cc(Nc3ccc(Br)cc3)c2c1 [Compound 41] | 117% | 2.04 µM | 99.4% | 14.11 | 100% | 7.97 | 96.5% | 3.61 µM | 7.91 µM | 95.2% | 75 µM | 97.2% | 2.96 µM | 28.8 µM | 28.8 µM | 3.01 µM | 28.8 µM | 28.8 µM | 28.8 µM | 28.8 µM | EC50 [1]: 4 µM; HCV TI [1]: 0.75; EC50 (WNV (WN-hRuPac cells)): 7.4 µM; WNV TI (WNV (WN-hRuPac cells)): 3.89 |
| CCOc1ccc2nc(C)cc(Nc3ccc(OCc4ccccc4Cl)cc3)c2c1 [Compound 42] | 96.5% | 1.48 µM | 100% | 17.29 | 100% | 14.22 | 100% | 1.8 µM | 5.05 µM | 99.5% | 65.8 µM | 99.8% | 2.99 µM | 25.6 µM | 25.6 µM | 1.21 µM | 25.6 µM | 25.6 µM | 25.6 µM | 25.6 µM | EC50 [1]: 1.3 µM; HCV TI [1]: 0.93; EC50 (WNV (WN-hRuPac cells)): 1.9 µM; WNV TI (WNV (WN-hRuPac cells)): 13.47 |
| COc1ccc2nc(C)cc(Nc3ccc(OCc4ccccc4Cl)cc3)c2c1 [Compound 43] | 95.4% | 2.24 µM | 100% | 11.63 | 99.9% | 18.48 | 100% | 1.41 µM | 1.65 µM | 98.7% | 75 µM | 99.7% | 4.08 µM | 26.1 µM | 26.1 µM | 2.09 µM | 26.1 µM | 26.1 µM | 26.1 µM | 26.1 µM | EC50 [1]: 1.6 µM; HCV TI [1]: 1.31; EC50 (WNV (WN-hRuPac cells)): 5.45 µM; WNV TI (WNV (WN-hRuPac cells)): 4.78 |
| Cc1cc(C)c2nc(C)cc(Nc3ccc(OCc4ccccc4)cc3)c2c1 [Compound 44] | 94.7% | 3.88 µM | 98.9% | 7.06 | 99.9% | 12.12 | 100% | 2.26 µM | 3.39 µM | 99.6% | 75 µM | 95.8% | 3.57 µM | 27.4 µM | 27.4 µM | 5.05 µM | 27.4 µM | 27.4 µM | 27.4 µM | 27.4 µM | EC50 [1]: 2.93 µM; HCV TI [1]: 1.72; EC50 (WNV (WN-hRuPac cells)): 4.29 µM; WNV TI (WNV (WN-hRuPac cells)): 6.39 |
| CCOc1ccc2nc(C)cc(Nc3ccc(C)c(Cl)c3)c2c1 [Compound 45] | 119% | 2.95 µM | 99.9% | 8.59 | 99% | 11.95 | 100% | 2.12 µM | 5.04 µM | 96.2% | 75 µM | 95.7% | 3.23 µM | 25.3 µM | 25.3 µM | 4.66 µM | 25.3 µM | 25.3 µM | 25.3 µM | 25.3 µM | EC50 [1]: 4.4 µM; HCV TI [1]: 1.06; EC50 (WNV (WN-hRuPac cells)): 3.17 µM; WNV TI (WNV (WN-hRuPac cells)): 7.99 |
